Source: ChEMBL document CHEMBL1201862, “PubChem BioAssay data set” (2004)
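Tested at 5 concentrations; 48 h exposure; 96-well plates; endpoints linearly interpolated, else capped at highest concentration. At the GI50, growth is halved.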 Calls of active or inactive are those of the source. No stated cut-off is given here; in the data, active = GI50 up to about 1.1 µM and inactive = higher.

Tests used:
Test in all cases: NCI tumour cell line growth inhibition, 48 h
786-0 = tested on: 786-0
BT-549 = tested on: BT-549
CCRF-CEM = tested on: CCRF-CEM
COLO 205 = tested on: COLO 205
EKVX = tested on: EKVX
HCC 2998 = tested on: HCC 2998
HOP-62 = tested on: HOP-62
HT-29 = tested on: HT-29
KM12 = tested on: KM12
MCF7 = tested on: MCF7
MDA-N = tested on: MDA-N
NCI-H460 = tested on: NCI-H460
NCI-H522 = tested on: NCI-H522
NCI/ADR-RES = tested on: NCI/ADR-RES
OVCAR-3 = tested on: OVCAR-3
OVCAR-5 = tested on: OVCAR-5
OVCAR-8 = tested on: OVCAR-8
SN12C = tested on: SN12C
SNB-75 = tested on: SNB-75
SW-620 = tested on: SW-620

Row | SMILES | GI50 (786-0) | GI50 (BT-549) | GI50 (CCRF-CEM) | GI50 (COLO 205) | GI50 (EKVX) | GI50 (HCC 2998) | GI50 (HOP-62) | GI50 (HT-29) | GI50 (KM12) | GI50 (MCF7) | GI50 (MDA-N) | GI50 (NCI-H460) | GI50 (NCI-H522) | GI50 (NCI/ADR-RES) | GI50 (OVCAR-3) | GI50 (OVCAR-5) | GI50 (OVCAR-8) | GI50 (SN12C) | GI50 (SNB-75) | GI50 (SW-620)
1 | O=C(Nc1ccccn1)c1cc2c(cc1Cl)Sc1nccn1S2(=O)=O | 35.1 µM (inactive) | 71.3 µM (inactive) | 22.5 µM (inactive) | 33.5 µM (inactive) | 38.2 µM (inactive) | 16.1 µM (inactive) | 39.6 µM (inactive) | 31.1 µM (inactive) | 33.6 µM (inactive) | 41.8 µM (inactive) | 36.3 µM (inactive) | 30.1 µM (inactive) | 39.1 µM (inactive) | 31 µM (inactive) | 26.7 µM (inactive) | > 100 µM (inactive) | 37.8 µM (inactive) | 36.6 µM (inactive) | 33.2 µM (inactive) | 45 µM (inactive)
2 | c1ccc2c(c1)Nc1ccccc1[P+]21c2ccccc2Nc2ccccc21 | 0.401 µM (active) | 0.153 µM (active) | 0.158 µM (active) | 0.048 µM (active) | 0.312 µM (active) | 0.313 µM (active) | 0.313 µM (active) | 0.0853 µM (active) | 0.0845 µM (active) | 0.489 µM (active) | 0.27 µM (active) | 0.146 µM (active) | 0.179 µM (active) | 69.2 µM (inactive) | 0.195 µM (active) | 0.281 µM (active) | 0.368 µM (active) | 0.13 µM (active) | 0.0466 µM (active) | 0.279 µM (active)
3 | COc1ccc(C2CC(c3c(C)nn(-c4ccccc4)c3-c3ccc(C)cc3O)=NN2c2ccccc2)cc1 (stereo not given) | > 100 µM (inactive) | 55.3 µM (inactive) | 6.05 µM (inactive) | 12.7 µM (inactive) | > 33.5 µM (inactive) | 12 µM (inactive) | > 100 µM (inactive) |  | 3.33 µM (inactive) | 8.07 µM (inactive) | 21.4 µM (inactive) | 3.42 µM (inactive) | 24.8 µM (inactive) | 21.9 µM (inactive) | > 50.5 µM (inactive) | > 35.1 µM (inactive) | 20.4 µM (inactive) | > 100 µM (inactive) | 5.04 µM (inactive) | 20.5 µM (inactive)
4 | COc1ccc(/C=C2\N=C(N3CCOCC3)NC2=O)cc1 | > 100 µM (inactive) | > 100 µM (inactive) | > 100 µM (inactive) | > 100 µM (inactive) | > 100 µM (inactive) | > 100 µM (inactive) | > 100 µM (inactive) | > 100 µM (inactive) | > 100 µM (inactive) | > 100 µM (inactive) | > 100 µM (inactive) |  | > 100 µM (inactive) | > 100 µM (inactive) | > 100 µM (inactive) | > 100 µM (inactive) | > 100 µM (inactive) | > 100 µM (inactive) | 58.3 µM (inactive) | > 100 µM (inactive)
5 | COC(=O)Oc1nn(C(=O)OC)c(=O)c2ccccc12 | > 100 µM (inactive) | > 100 µM (inactive) | > 100 µM (inactive) | 85.1 µM (inactive) | > 100 µM (inactive) | 59.8 µM (inactive) | > 100 µM (inactive) |  | > 100 µM (inactive) | > 100 µM (inactive) | > 100 µM (inactive) |  | > 100 µM (inactive) | > 100 µM (inactive) | > 100 µM (inactive) | > 100 µM (inactive) | > 100 µM (inactive) | > 100 µM (inactive) | 54.5 µM (inactive) | > 100 µM (inactive)
6 | O=c1c2c3c(sc2nc2n1N=CN(c1ccc(F)cc1)C2)CCCC3 | > 100 µM (inactive) | > 100 µM (inactive) | > 100 µM (inactive) | > 100 µM (inactive) | > 100 µM (inactive) | > 100 µM (inactive) | > 100 µM (inactive) | > 100 µM (inactive) | > 100 µM (inactive) | > 100 µM (inactive) | > 100 µM (inactive) | > 100 µM (inactive) | > 100 µM (inactive) | > 100 µM (inactive) | > 100 µM (inactive) | > 100 µM (inactive) | > 100 µM (inactive) | > 100 µM (inactive) | > 100 µM (inactive) | > 100 µM (inactive)
7 | COC(=O)C(=O)C(C(=O)OC)C(=O)C(=O)Nc1ccccc1C(N)=O (stereo not given) | > 100 µM (inactive) | > 100 µM (inactive) | > 100 µM (inactive) |  | > 100 µM (inactive) | > 100 µM (inactive) | > 100 µM (inactive) | > 100 µM (inactive) | > 100 µM (inactive) | > 100 µM (inactive) | > 100 µM (inactive) | > 10 µM (inactive) | > 100 µM (inactive) | > 100 µM (inactive) | > 100 µM (inactive) | > 100 µM (inactive) | > 100 µM (inactive) | > 100 µM (inactive) | > 100 µM (inactive) | > 100 µM (inactive)
